These results are taken from US20230114107A1, “COMBINATION ANTI-CANCER THERAPIES WITH INDUCERS OF IRON-DEPENDENT CELLULAR DISASSEMBLY” (Flagship Pioneering Innovations V, Inc., priority 2019, published 2023).

Test [1] relates to NFKB reporter in THP1-Dual cells. Kind of test: NFKB reporter activity in THP1-Dual monocytes co-cultured with treated Caki-1 cells. The class given is cell-based, human. The protocol: Caki-1 renal cell carcinoma cells were treated with either control (DMSO) or various doses of Erastin, for 24 hours prior to co-culture with THP1-Dual cells for an additional 24 hours. Erastin was purchased from Selleckchem (Houston, Tex.) and dissolved in DMSO. Subsequently, the THP1 supernatants were assessed for NFKB or IRF reporter activity. Caki-1 cells were acquired from ATCC and THP1-Dual cells acquired from InvivoGen (San Diego, Calif.). Both cell types were cultured in 96-well plates for the duration of the assay. 7,500 Caki-1 cells were plated 24 hours prior to dosing with Erastin, with a final DMSO concentration of 0.5%. 24 hours post-treatment, THP1-Dual cells (25,000 cells/well) were added to the Caki-1 cells. 24 hours later, 30 μl of supernatant was mixed with either 200 μl QuantiBlue (InvivoGen) or 50 μl QuantiLuc and absorbance or luminescence was recorded on a Molecular Devices plate reader. Caki-1 renal cell carcinoma cells were treated with either control (DMSO) or various doses of RSL3, for 24 hours prior to co-culture with THP1-Dual cells for an additional 24 hours. RSL3 was purchased from Selleckchem and dissolved in DMSO. Subsequently, the THP1 supernatants were assessed for NFKB or IRF reporter activity. Caki-1 cells were acquired from ATCC and THP1-Dual cells acquired from InvivoGen (San Diego, Calif.). Both cell types were cultured in 96-well plates for the duration of the assay. 7,500 Caki-1 cells were plated 24 hours prior to dosing with RSL3, with a final DMSO concentration of 0.5%. 24 hours post-treatment, THP1-Dual cells (25,000 cells/well) were added to the Caki-1 cells. 24 hours later, 30 μl of supernatant was mixed with either 200 μl QuantiBlue (InvivoGen, San Diego, Calif.) or 50 μl QuantiLuc and absorbance or luminescence was recorded on a Molecular Devices plate reader. […] Subsequently, the THP1 supernatant was assessed for NFKB reporter activity. Caki-1 cells were acquired from ATCC and THP1-Dual cells acquired from InvivoGen (San Diego, Calif.). Both cell types were cultured in 96-well plates for the duration of the assay.

The test system is the same in test [2]. Kind of test: NFKB reporter activity in THP1-Dual monocytes co-cultured with treated A20 cells. The class given is cell-based, human. The protocol:
A20 B-cell leukemia cells were treated with either control (DMSO) or various doses of RSL3, for 24 hours prior to co-culture with THP1-Dual cells for an additional 24 hours. RSL3 was purchased from Selleckchem (Houston, Tex.) and dissolved in DMSO. Subsequently, the THP1 supernatants were assessed for NFKB or IRF reporter activity.
A20 cells were acquired from ATCC and THP1-Dual cells acquired from InvivoGen (San Diego, Calif.). Both cell types were cultured in 96-well plates for the duration of the assay. 50,000 A20 cells were plated 24 hours prior to dosing with RSL3, with a final DMSO concentration of 0.5%. 24 hours post-treatment, THP1-Dual cells (25,000 cells/well) were added to the A20 cells. 24 hours later, 30 μl of supernatant was mixed with either 200 μl QuantiBlue (InvivoGen, San Diego, Calif.) or 50 μl QuantiLuc and absorbance or luminescence was recorded on a Molecular Devices plate reader.
A20 lymphoma cells were treated with various doses (e.g. 0.002, 0.005, 0.014, 0.041, 0.123, 0.370, 1.111, 3.333 and 10 μM) of a GPX4 inhibitor (RSL3, ML162 or ML210) in the presence or absence of 1 μM Ferrostatin-1 for 24 hours. ML162 was purchased from Cayman Chemical Company Inc and resuspended in DMSO. ML210 was purchased from Sigma-Aldrich and resuspended in DMSO. A20 lymphoma cells were also treated with DMSO as a negative control. After treatment with DMSO or a GPX4 inhibitor for 24 hours, the A20 lymphoma cells were co-cultured with THP1-Dual cells for an additional 24 hours. Subsequently, the THP1 supernatant was assessed for NFKB reporter activity. A20 cells were acquired from ATCC and THP1-Dual cells were acquired from InvivoGen (San Diego, Calif.). Both cell types were cultured in 96-well plates for the duration of the assay.

For test [3], the system named is BT-474 Clone 5 cells. Kind of test: CellTiter-Glo 2.0 viability of trastuzumab-resistant breast cancer cells. As to conditions: graded concentrations, 72 hours; vs non-resistant parental cell line; FIG. 16C. The class given is cell-based, human. As for the experimental part: (§1) The effects of the ferroptosis inducer RSL3 on cancer cell lines with acquired resistance to standard of care therapeutics was assessed in vitro. Human melanoma cell lines with acquired resistance to BRAF inhibitors (A375-DR or A375-VR) were generated by propagating parental A375 cells in increasing concentrations of dabrafenib or vemurafenib (10 nM-100 μM) over 8 weeks. These resistant melanoma cell lines were further maintained in growth medium containing 5 μM dabrafenib or vemurafenib. BT-474 Clone 5, a human breast cancer cell line that is resistant to trastuzumab, was purchased from American Type Culture Collection (ATCC). 5,000 A375-DR, A375-VR, or BT-474 clone 5 cells were plated per well in flat-bottom 96 well plates and incubated overnight. Cells were then dosed with graded concentrations of RSL3 for 72 hours, and cellular viability was assessed using the CellTiter-Glo 2.0 Cell Viability Assay. The experiments were run in triplicate.
In general terms: In ATP-based viability assays light output follows the ATP content of the culture.

Test [4] has as its system A375-DR cells. Briefly: CellTiter-Glo 2.0 viability of dabrafenib-resistant melanoma cells. The class given is cell-based, human. As to conditions: graded concentrations, 72 hours; vs non-resistant parental cell line; FIG. 16A. As for the experimental part: as §1
Test [5] relates to NFKB reporter in THP1-Dual cells. Kind of test: NFKB reporter activity in THP1-Dual monocytes co-cultured with treated Jurkat cells. The class given is cell-based, human. The note with it: Jurkat cells treated 24 hours, co-culture 24 hours; vs DMSO; FIG. 5B. The protocol: Jurkat T cell leukemia cells were treated with either control (DMSO) or various doses of RSL3, for 24 hours prior to co-culture with THP1-Dual cells for an additional 24 hours. RSL3 was purchased from Selleckchem (Houston, Tex.) and dissolved in DMSO. Subsequently, the THP1 supernatants were assessed for NFKB or IRF reporter activity.
Jurkat cells were acquired from ATCC and THP1-Dual cells acquired from InvivoGen (San Diego, Calif.). Both cell types were cultured in 96-well plates for the duration of the assay. 100,000 Jurkat cells were plated 24 hours prior to dosing with RSL3, with a final DMSO concentration of 0.5%. 24 hours post-treatment, THP1-Dual cells (25,000 cells/well) were added to the Jurkat cells. 24 hours later, 30 μl of supernatant was mixed with either 200 μl QuantiBlue (InvivoGen, San Diego, Calif.) or 50 μl QuantiLuc and absorbance or luminescence was recorded on a Molecular Devices plate reader.

Test [6] deals with Caki-1 renal cell carcinoma cells. Briefly: Viability of Caki-1 renal cell carcinoma cells after treatment. The class given is cell-based. The note with it: 24 hours.

Entries after “also recorded” stand apart in the source; their conditions may differ.

Turning to `COC(=O)c1ccc([C@H]2c3[nH]c4ccccc4c3C[C@H](C(=O)OC)N2C(=O)CCl)cc1` [RSL3], the “NFKB signaling in THP1 monocytes” value in test [1] (Caki-1 cells treated 24 hours, co-culture 24 hours, vs DMSO, FIG. 3B, 4B) is given as “elicited NFKB signaling in THP1 monocytes”; in test [2] (A20 cells treated 24 hours, co-culture 24 hours, vs DMSO, FIG. 6B) it was “elicited”; in test [5], “elicited NFKB signaling in THP1 monocytes”. Further, the “NFKB activity in THP1 cells, dose dependence” value in test [1] (Caki-1 cells treated with RSL3 or ML162, FIG. 13B, 14B) is given as “increased NFKB activity in THP1 cells in a dose dependent manner”; in test [2] (A20 lymphoma cells treated with GPX4 inhibitor, FIG. 10B, 11B, 12B), “increased NFKB activity in THP1 cells in a dose dependent manner”. Further, the “sensitivity of BT-474 clone 5 cells to RSL3-induced ferroptosis (cellular viability)” value in test [3] is listed as “sensitive to RSL3-induced ferroptosis; also recorded: more sensitive to RSL3-induced ferroptosis than the corresponding non-resistant parental cell line”. The “sensitivity of A375-DR cells to RSL3-induced ferroptosis (cellular viability)” value in test [4] is listed as “sensitive to RSL3-induced ferroptosis; also recorded: more sensitive to RSL3-induced ferroptosis than the corresponding non-resistant parental cell line”. The “viability of Caki-1 renal carcinoma cells, dose dependence” value in test [6] (GPX4 inhibitor various doses, FIG. 13A, 14A) is recorded as “decreased viability of the cells in a dose dependent manner”. Also, in test [6] (various doses, FIG. 3A, 4A), the “viability of Caki-1 cells” value is recorded as “negatively affected the viability”.
